Laboratory results published in US20260232661A1, “Compositions and Uses Thereof” (Purposeful IKE, priority 2020, published 2026).

Experiments:
Format in all cases: in vivo
[1] = system: Fmr1 KO mice; assay: Self-grooming (stereotypy); details: Dunnett's test, alpha 0.05; doses as E31
Protocol: (§1) Fmr1 KO mice backcrossed to the FVB strain and WT littermates were used during experiments. TransnetXY Automated Genotyping (www.transnetyx.com/). TRANSNETYX, INC., 8110 Cordova Rd. Suite 119, Cordova, TN 38016, USA was used for genotyping. The animals were pretreated for 14 days. The active ingredients of Sumatriptan and Ergoloid were in a water carrier, whereas oxitriptan was in a methanol carrier.
(§2) The mice were housed in plastic cages (35×30×12 cm), 5 in each. The room temperature (21±2° C.), relative humidity (55±5%), a 12-h light-dark cycle (lights on 7 a.m.-7 p.m.) and air exchange (16 times per h) were automatically controlled. The animals had free access to commercial food pellets and water. Testing was conducted during the light phase. Ten mice per treatment group were used for the AGS experiments. Experiments were conducted in line with the requirements of the UK Animals (Scientific Procedures) Act, 1986.
(§3) All experiments were conducted with the experimenter blind to genotype and drug treatment. Separate investigators prepared and coded dosing solutions, allocated the mice to the study treatment groups, dosed the animals, and collected the Audiogenic Seizure data.
Behavior testing was conducted at 2 weeks. The behavioral tests were as follows: 1. Hyperactivity: Open field; 2. Stereotypy: Self-grooming; 3. […]
For stereotypy, self-grooming was assessed. […]

[2] = system: Fmr1 KO mice; assay: Test of daily living (nesting; marble burying)
Protocol: as §1, §2, §3
(§4) Behavior testing was conducted at 2 weeks. The behavioral tests were as follows: 1. Hyperactivity: Open field; 2. Stereotypy: Self-grooming; 3. Sociability: Three chamber partition test; 4. Memory and Learning: Novel Object Recognition; 5. Anxiety: hyponeophagia; and 6. Test of daily living: marble burying
For test of daily living, nesting was assessed as nest building is an innate behavior in rodents, even when raised in laboratory settings. Synthetic and/or natural materials (such as twine, tissue, cotton, paper, and hay) are provided as a gauge of their overall well-being and as an ancillary assessment to predict the possible decline in cognition. Typically, changes in nesting behaviors, such as failure to create a nest, indicate a change in health or welfare. In addition, nesting behavior is sensitive to many environmental and physiological challenges, as well as many genetic mutations underlying pathological disease states (Gaskill 2013).
(§5) The treatment of the mice with OX (Oxitriptan), SU (Sumatriptan), ER (Ergoloid mesylates, also referred to as ergoloid herein) were according to the matrix shown below in Table 1.
(§6) The experimental procedures described above for Example 1 were used in the following tests, as well as the addition of two further behaviour tests as described below. An SSRI (selective serotonin re-uptake inhibitor) was co-dosed with the ergoloid mesylates and oxitriptan to assess the effect of the ergoloid mesylates and oxitriptan treatment on a subject already receiving SSRI treatment.
(§7) The treatment of the mice with OX (Oxitriptan), ER (Ergoloid mesylates) and FL (fluvoxamine) were according to the matrix shown below in Table 21. The triple combination involved dosing of 2 mg/kg ergoloid mesylates, 40 mg/kg oxitriptan and 40 mg/kg of fluvoxamine (the SSRI).

[3] = system: Fmr1 KO mice; assay: Three chamber partition test (sociability); set-up: Mean Diff., N_WT-V vs. treated KO (Sociability) / Mean 2, treated KO group (Sociability) / Mean Diff., F_KO-V vs. F_KO treated (Sociability) / Mean Diff., F_KO-V vs. N_KO treated (Sociability) / Mean 2, F_KO treated group (Sociability) / Mean 2, N KO treated group (Sociability) / Mean 2, N_KO treated group (Sociability) / Data table Sociability, F_KO-Sumatriptan / Data table Sociability, N_KO-Sumatriptan / Data table Sociability, F_KO-Oxitriptan: unit not given here
Protocol: as §1, §2, §3, §4
For sociability a three chamber partition test was utilized. The three-chamber paradigm test known as Crawley's sociability and preference for social novelty protocol has previously been successfully employed to study social affiliation and social memory in several inbred and mutant mouse lines. The main principle of the test was based on the free choice by a subject mouse to spend time in any of three box's compartments during two experimental sessions, including indirect contact with one or two mice with which it was unfamiliar (Kaidanovich-Beilin 2011).
(§8) The treatment of the mice with OX (Oxitriptan), SU (Sumatriptan), ER (Ergoloid mesylates, also referred to as ergoloid herein) were according to the matrix shown below in Table 1. […]

[4] = system: Fmr1 KO mice; assay: Hyponeophagia test (anxiety)
Protocol: as §1, §2, §3, §4
For anxiety a hyponeophagia test was conducted. Mice and rats cannot vomit, due to the tightness of the cardiac sphincter of the stomach, so to overcome the problem of potential food toxicity they have evolved a strategy of first ingesting only very small amounts of novel substances. The amounts ingested then gradually increase until the animal has determined whether the substance is safe and nutritious. So the old rat-catchers would first put a palatable substance such as oatmeal, which was to be the vehicle for the toxin, in the infested area (Deacon 2011).
as §5, §6, §7

[5] = system: Fmr1 KO mice; assay: Novel Object Recognition (memory and learning); set-up: Mean Diff., N_WT-V vs. treated KO (NOR) / Mean 2, treated KO group (NOR) / Mean Diff., F_KO-V vs. F_KO treated (NOR) / Mean Diff., F_KO-V vs. N_KO treated (NOR) / Mean 2, F_KO treated group (NOR) / Mean 2, N_KO treated group (NOR): unit not given here
Protocol: as §1, §2, §3, §4
For memory and learning, a novel object recognition (NOR) task was used to evaluate the rodents' ability to recognize a novel object in the environment. […] The task procedure consists of three phases: habituation, familiarization, and test phase (Antunes 2012).
as §8

[6] = system: Fmr1 KO mice; assay: Open field test (hyperactivity)
Protocol: as §1, §2, §3, §4
For hyperactivity, the open field test (OFT) is a common measure of exploratory behavior and general activity in both mice and rats, where both the quality and quantity of the activity can be measured. Principally, the open field (OF) is an enclosure, generally square, rectangular, or circular in shape with surrounding walls that prevent escape. The OFT is also commonly used as a mechanism to assess the sedative, toxic, or stimulant effects of compounds (Gould 2009).
as §5, §6, §7

[7] = KO mice, mg/kg: Sumatriptan 20, Oxitriptan 40, Ergoloid 4, Ergoloid 2+Sumatriptan 10, Ergoloid 2+Oxitriptan 40

**Q.** How did the “Significant? KO-V vs. treated KO (Stereotypy)” value [1] turn out when `N[C@@H](Cc1c[nH]c2ccc(O)cc12)C(=O)O` [Oxitriptan] was run?
**A.** Yes

**Q.** What about the “Significant? WT-V vs. treated KO (Test of daily living)” value ([2]; Dunnett's test, alpha 0.05, doses as E11) of the same compound?
**A.** No

**Q.** What about the “Significant? KO-V vs. treated KO (Test of daily living)” value ([2]; Dunnett's test, alpha 0.05, doses as E41) of the same compound?
**A.** Yes

**Q.** What about the “Summary, WT-V vs. treated KO (Test of daily living)” value ([2]; Dunnett's test, doses as E11) of the same compound?
**A.** ns

**Q.** And the “Mean Diff., KO-V vs. treated KO (Test of daily living)” value ([2]; KO mice, mg/kg: Sumatriptan 20, Oxitriptan 40, Ergoloid 4, Ergoloid 2+Oxitriptan 40)?
**A.** −3.700

**Q.** And the “Mean Diff., WT-V vs. treated KO (Test of daily living)” value [2, 7]?
**A.** −0.1000

**Q.** And the “Mean 2, treated KO group (Test of daily living)” value ([2]; comparison against KO-V, doses as E41)?
**A.** 4.900

**Q.** And the “Mean 2, treated KO group (Test of daily living)” value ([2]; comparison against WT-V, doses as E11)?
**A.** 4.900

**Q.** And the “Significant? F_KO-V vs. F_KO treated (Sociability)” value ([3]; Dunnett's test, alpha 0.05, F_ groups, doses as E56)?
**A.** Yes

**Q.** And the “Significant? F_KO-V vs. N_KO treated (Sociability)” value ([3]; Dunnett's test, alpha 0.05, N_ groups, doses as E61)?
**A.** Yes

**Q.** What about the “Significant? N_WT-V vs. treated KO (Sociability)” value ([3]; Dunnett's test, alpha 0.05, groups and doses as E21) of the same compound?
**A.** No

**Q.** And the “Summary, N_WT-V vs. treated KO (Sociability)” value ([3]; Dunnett's test, groups and doses as E21)?
**A.** ns

**Q.** What about the “Data table Sociability, F_KO-Oxitriptan” value ([3]; F_, KO mice, Oxitriptan 40 mg/kg, individual animals) of the same compound?
**A.** 51

**Q.** What about the “Mean Diff., F_KO-V vs. N_KO treated (Sociability)” value ([3]; N_ groups, mg/kg: Sumatriptan 20, Oxitriptan 40, Ergoloid 4, Ergoloid 2+Oxitriptan 40) of the same compound?
**A.** −17.20

**Q.** And the “Mean Diff., N_WT-V vs. treated KO (Sociability)” value ([3]; N_ groups, mg/kg: Sumatriptan 20, Oxitriptan 40, Ergoloid 4, F_KO Ergoloid 2+Sumatriptan 10, N_KO Ergoloid 2+Oxitriptan 40)?
**A.** 0.3000

**Q.** What about the “Mean 2, N_KO treated group (Sociability)” value ([3]; comparison against F_KO-V, doses as E61) of the same compound?
**A.** 95.80

**Q.** What about the “Mean 2, treated KO group (Sociability)” value ([3]; comparison against N_WT-V, groups and doses as E21) of the same compound?
**A.** 98.80

**Q.** And the “Significant? WT-V vs. treated KO (Hyponeophagia)” value ([4]; Dunnett's test, alpha 0.05, doses as E6)?
**A.** No

**Q.** And the “Significant? KO-V vs. treated KO (Hyponeophagia)” value ([4]; Dunnett's test, alpha 0.05, doses as E36)?
**A.** Yes

**Q.** What about the “Summary, WT-V vs. treated KO (Hyponeophagia)” value ([4]; Dunnett's test, doses as E6) of the same compound?
**A.** ns

**Q.** What about the “Mean Diff., WT-V vs. treated KO (Hyponeophagia)” value [4, 7] of the same compound?
**A.** −0.7000

**Q.** And the “Significant? F_KO-V vs. F_KO treated (NOR)” value ([5]; Dunnett's test, alpha 0.05, F_ groups, doses as E46)?
**A.** No

**Q.** And the “Significant? F_KO-V vs. N_KO treated (NOR)” value ([5]; Dunnett's test, alpha 0.05, N_ groups, doses as E51)?
**A.** Yes

**Q.** What about the “Significant? N_WT-V vs. treated KO (NOR)” value ([5]; Dunnett's test, alpha 0.05, groups and doses as E16) of the same compound?
**A.** Yes

**Q.** And the “Summary, F_KO-V vs. F_KO treated (NOR)” value ([5]; Dunnett's test, F_ groups, doses as E46)?
**A.** ns

**Q.** And the “Mean 2, F_KO treated group (NOR)” value ([5]; comparison against F_KO-V, doses as E46)?
**A.** 5.636

**Q.** What about the “Below threshold? WT-V vs. treated KO (Open Field)” value ([6]; Dunnett's test, alpha 0.05, doses as E1) of the same compound?
**A.** Yes

**Q.** What about the “Significant? KO-V vs. treated KO (Open Field)” value ([6]; Dunnett's test, alpha 0.05, doses as E26) of the same compound?
**A.** Yes

**Q.** And the “Mean Diff., WT-V vs. treated KO (Open Field)” value ([6]; KO mice, mg/kg: Sumatriptan 20, 5-HTP 80, EM 4, Ergoloid 2+Sumatriptan 10, Ergoloid 2+Oxitriptan 40)?
**A.** −512.4
